US20080119408A1, “PTH FORMULATIONS FOR INTRANASAL DELIVERY” (NASTECH PHARMACEUTICAL COMPANY INC., priority 2006, published 2008)
Read-outs that look alike come from different tables or passages of the source. Ends that are not written are not given here.

How the values were obtained:
[1] = test system: EpiAirway Tissue Model (normal, human-derived tracheal/bronchial epithelial cells); assay: Cell viability, MTT assay (Example 3); format: cell-based; conditions: after 1-h incubation
Description: (§1) Each tissue insert was placed in an individual well containing 1 ml media. On the apical surface of the inserts, 100 μl of test formulation was applied, and the samples were shaken for 1 h at 37° C. The underlying culture media samples were taken at 20, 40, and 60 minutes and stored at 4° C. for up to 48 hours for lactate dehydrogenase (LDH, cytotoxicity) and sample penetration (PTH HPLC evaluations). The 60-min samples were used for the lactate dehydrogenase (LDH, cytotoxicity) assay. Transepithelial electrical resistance (TER) was measured before and after the 1-h incubation. Following the incubation, the cell inserts were analyzed for cell viability via the mitochondrial dehydrogenase (MDH) assay.
Cell viability was assessed using the MTT assay (MTT-100, MatTek kit). Thawed and diluted MTT concentrate was pipetted (300 μl) into a 24-well plate. Tissue inserts were gently dried, placed into the plate wells, and incubated at 37° C. for 3 hours. After incubation, each insert was removed from the plate, blotted gently, and placed into a 24-well extraction plate. The cell culture inserts were immersed in 2.0 ml of the extractant solution per well (to completely cover the sample). The extraction plate was covered and sealed to reduce evaporation of extractant. […] The optical density of the samples was measured at 550 nm on a plate reader.

[2] = test system: EpiAirway Tissue Model (normal, human-derived tracheal/bronchial epithelial cells); assay: Cytotoxicity, LDH assay (Example 3); format: cell-based; conditions: 60-min samples
Description: as §1
The amount of cell death was assayed by measuring the loss of lactate dehydrogenase (LDH) from the cells using a CytoTox 96 Cytoxicity Assay Kit (Promega Corp., Madison, Wis.). LDH analysis of the apical media was evaluated. The appropriate amount of media was added to the apical surface in order to total 250 μL, taking into consideration the initial sample loading volume. The inserts was shaken for 5 minutes. 150 μL of the apical media was removed to eppendorf tubes and centrifuged at 10000 rpm for 3 minutes. […] Following incubation, 50 μl of stop solution was added to each well and the plates read on an optical density plate reader at 490 nm.

[3] = test system: EpiAirway Tissue Model (normal, human-derived tracheal/bronchial epithelial cells); assay: Transepithelial electrical resistance (TER), MatTek cell model (Examples 1-2); format: cell-based; conditions: 1-h incubation, apical application
Description: The effect of various permeation enhancers on PTH formulations was measured in a MatTek cell model (MatTek, Corp. Ashland, Mass.). Three permeation enhancers (EDTA, ethanol, and polysorbate 80 (Tween 80)) were evaluated individually and in combination with one another. Sorbitol was used as a tonicifiers to adjust the osmolality of formulations to 220 mOsm/kg whenever applicable. The formulation pH was adjusted to ˜4.0. The permeation enhancer combination of 45 mg/ml Me-β-CD, 1 mg/ml DDPC, and 1 mg/ml EDTA at pH 4.5 served as the positive control. The formulation containing sorbitol only was used as the negative control. Each formulation was evaluated in the presence and absence of preservative. […]
Each tissue insert was placed in an individual well containing 1 ml media. […] Transepithelial electrical resistance (TER) was measured before and after the 1-h incubation. Following the incubation, the cell inserts were analyzed for cell viability via the mitochondrial dehydrogenase (MDH) assay.
TER measurements were accomplished using the Endohm-12 Tissue Resistance Measurement Chamber connected to the EVOM Epithelial Voltammeter (World Precision Instruments, Sarasota, Fla.) with the electrode leads. […] The background resistance was measured with 1.5 ml Media in the Endohm tissue chamber and 300 μl Media in the blank insert. […] Resistance was expressed as (resistance measured−blank)×0.6 cm^2. […]

MatTek in vitro system = assay: Chlorobutanol permeation study of API formulations (PTH, Calcitonin), MatTek in vitro system, ELISA; format: cell-based; conditions: CB 0-5 mg/mL
Description: Chlorobutanol (CB) was added to API formulations (PTH and Calcitonin) to test permeation in the MatTek in vitro system. CB was tested at varying concentrations (0, 1.25, 2.5, 3.75 and 5 mg/mL) in 10 mM citrate buffer, pH 4.0 and adjusted for a final target osmolality of 220 mOsm with sorbitol. Calcitonin and PTH were added at 2 mg/mL in each of the respective control or test formulations (n=6 insert per formulation). 1 mL of each formulation was placed into silanized 3 cc vials. A 0.1 mL volume of a 20× stock of one of the API compounds was added to 0.9 mL of 1.1× concentrated diluent form of each of the CB formulations to make the unique formulations.

[4] = anesthetized rats, cited from earlier work
[5] = 13-week intranasal toxicity and toxicokinetics in dogs; format: in vivo; conditions: both sexes, beagle, dog, in vivo, sc, 6 μg/kg/day; dogs, subcutaneous injection; read-out: Tmax for PTH1-34
Description: (§2) Toxicity and toxiokinetics of PTH1-34 was studied after administration of PTH1-34 once daily by intranasal instillation to dogs for at least 13 weeks. One additional group received recombinant PTH1-34 by subcutaneous injection for comparison.
(§3) Male and female beagles were assigned among six study groups. Animals assigned to groups 1 through 5 received an intranasal installation of a negative control (0.9% Sodium Chloride for Injection, USP), 40 or 80 μg/kg of body weight/day (μg/kg/day) PTH1-34 (synthetic form) in the PTH-072 formulation (Example 10, Table 22), or 80 or 200 μg/kg/day PTH1-34 (synthetic form) in the PTH-074-1 formulation (Example 10, Table 22).
(§4) Results were collected for mortality, clinical signs, gross nasal passage observations, ophthalmic findings, electrocardiogram measurements, blood pressure and heart rate differences, body weights, food consumption, clinical and anatomic pathology, and toxicokinetic evaluations. All animals in the study survived to scheduled necropsy. […] The nasal cavity was sectioned such that meaningful regions of the cavity were represented, and the soft (e.g., epithelial lining) or hard tissues (e.g., bone and cartilage based structures) of the nasal cavity were examined.

beagles = assay: as above; format: in vivo
Description: as §2, §3, §4

[6] = 13-week intranasal toxicity and toxicokinetics in rats; format: in vivo, rat; conditions: Crl:CD(SD), rat, in vivo, sc, 25 μg/kg/day, female rats, administered by injection (subcutaneous)
Description: (§5) Toxicity and toxicokinetics of PTH1-34 formulations were evaluated in male and female Crl:CD(SD) rats. PTH1-34 (synthetic form) was administered once daily via intranasal instillation to rats for at least 13 weeks. For comparison, one group received commercially available recombinant PTH1-34 via subcutaneous injection. Assessment of toxicity was based on mortality, clinical observations, ophthalmic examinations, body weights, food consumption, clinical and anatomic pathology, and toxicokinetic evaluations. Two synthetic PTH1-34 formulations were used in the study, PTH-072-1 and PTH-074 at low and high doses (formulations are shown in Table 22).
(§6) Doses in rats were determined for body weight, body surface area, and nasal surface area. Representative concentrations of PTH1-34 for clinical studies were considered to be 1.5 mg/mL and 3.0 mg/mL (and a dose volume of 100 μL). For the lower concentration, a 70 kg human would receive a dose of 2.1 μg/kg based on body weight. At the higher dose a human would receive a dose of 4.3 μg/kg based on body weight.

Crl:CD(SD) rats = assay: as above; format: in vivo, rat
Description: as §5, §6

With Triton X the “cell viability (MTT)” value [1] was “significant reduction of cell viability”, the “cytotoxicity (LDH)” value [2] was “significant cytotoxicity” and the TER reduction [3] was “significant TER reduction”.
In the case of “Calcitonin (CGNLSTCMLGTYTQDFNKFHTFPQTAIGVGAP; ends and bridges not checked; cysteine pairing not given here; UniProt P01258 85-116, looked up) [peptide API tested for CB permeation enhancement]”, the “effect of addition of CB on permeation of the API” value (MatTek in vitro system) is reported as “failed to enhance permeation”.
In the case of “human growth hormone: protein whose nasal bioavailability in rats was reported raised by N-acetyl-L-cysteine”, the “nasal bioavailability of human growth hormone” value ([4]; with N-acetyl-L-cysteine) is listed as 12.2% and the “nasal bioavailability of human growth hormone” value ([4]; without N-acetyl-L-cysteine) is listed as 7.5%.
With `CC[C@H](C)[C@H](NC(=O)[C@H](CCC(=O)O)NC(=O)[C@H](CO)NC(=O)[C@@H](NC(=O)[C@@H](N)CO)C(C)C)C(=O)N[C@@H](CCC(N)=O)C(=O)N[C@@H](CC(C)C)C(=O)N[C@@H](CCSC)C(=O)N[C@@H](Cc1cnc[nH]1)C(=O)N[C@@H](CC(N)=O)C(=O)N[C@@H](CC(C)C)C(=O)NCC(=O)N[C@@H](CCCCN)C(=O)N[C@@H](Cc1cnc[nH]1)C(=O)N[C@@H](CC(C)C)C(=O)N[C@@H](CC(N)=O)C(=O)N[C@@H](CO)C(=O)N[C@@H](CCSC)C(=O)N[C@@H](CCC(=O)O)C(=O)N[C@@H](CCCN=C(N)N)C(=O)N[C@H](C(=O)N[C@@H](CCC(=O)O)C(=O)N[C@@H](Cc1c[nH]c2ccccc12)C(=O)N[C@@H](CC(C)C)C(=O)N[C@@H](CCCN=C(N)N)C(=O)N[C@@H](CCCCN)C(=O)N[C@@H](CCCCN)C(=O)N[C@@H](CC(C)C)C(=O)N[C@@H](CCC(N)=O)C(=O)N[C@@H](CC(=O)O)C(=O)N[C@H](C(=O)N[C@@H](Cc1cnc[nH]1)C(=O)N[C@@H](CC(N)=O)C(=O)N[C@@H](Cc1ccccc1)C(=O)O)C(C)C)C(C)C` [PTH1-34, teriparatide] the Tmax [5] was 13 to 26 min, the “histologic changes in nasal tissues” value (beagles; dog, in vivo) was “no histologic changes in nasal tissues” and the “trabecular bone in femur and sternum” value (beagles; dogs dosed subcutaneously or intranasally at the high dose) was “minimally thickened trabecular bone”. For the same compound, the “AUClast greater in the dog than in humans at representative doses” value (beagles; dogs vs humans) was at least 10 fold, the “Cmax greater in the dog than in humans at representative doses” value (beagles; dogs vs humans) was “at least 7 fold” and the “clinical signs, ophthalmic findings, ECG, blood pressure, heart rate, body weights, food consumption” value (beagles; dogs, 13 weeks) was “No PTH1-34 related clinical signs, ophthalmic findings, electrocardiogram differences, blood pressure and heart rate differences, body weights, or food consumption changes were noted”. The “effect of addition of CB on permeation of the API” value (MatTek in vitro system) was “enhanced permeation”, the Cmax [6] was 7.72 to 12.2 ng/mL and the Tmax [6] was 5 min. For the same compound, the half-life ([6]; read-out: t1/2 for PTH1-34) was 15 to 23 min, the “trabecular bone in femur and sternum” value (Crl:CD(SD) rats; female rats, 25 μg/kg/day SQ, 200 μg/kg/day PTH-072-1, 500 μg/kg/day PTH-074-1 intranasally) was “thickened trabecular bone” and the “changes in nasal turbinate tissues” value (Crl:CD(SD) rats; rats, 13 weeks intranasal) was “No changes considered to be attributable to the intranasal administration of PTH1-34 were observed”. The “clinical signs, ophthalmic observations, body weight, food consumption” value (Crl:CD(SD) rats; rats, 13 weeks, regardless of route, dose level or formulation) was “No PTH1-34 related clinical signs, ophthalmic observations, body weight changes, or food consumption changes were observed”.
